# Columns and labels:
# Assay type in all cases: physicochemical
# [1] = Solvency of DMAE in alcohol/additive; conditions: 25° C.
# Experimental: When a crystal of DMAE was precipitated […], and when a crystal of DMAE was not precipitated, the solvency was evaluated to be “poor”.
# [2] = Residual rate of the active substance in monomer solution (HPLC); conditions: for Residual Rate (% by weight) after 7 Days: 25° C.
# [3] = Solubility of DMAE at 25° C. in alcohol/additive
# Excerpt: When the content of the saturated aliphatic monohydric alcohol is small in the plaster layer described above, the solvency and diffusibility of the DMAEs in the plaster layer decrease, and the transdermal absorbency of the DMAEs becomes insufficient. When the content of the saturated aliphatic monohydric alcohol is large in the plaster layer, the acrylic adhesive in the plaster layer becomes excessively plasticized, leading to an adhesive transfer when the transdermal patch is removed away from the skin. Therefore, the content of the saturated aliphatic monohydric alcohol in the plaster layer is limited to 1 to 30% by weight, and preferably 5 to 30%.
# An excess amount of DMAEs is added to the saturated aliphatic monohydric alcohol, a weight W0 (g) of the alcohol being measured in advance; a solution temperature is set at 50° C. to keep the warmth for one hour or more than one hour; and then a shaking operation is continued in a water bath of 25° C. for 10 minutes by means of supersonic waves to prepare a DMAEs saturated solution. Next, the DMAEs saturated solution, after being arranged to stand still for 24 hours at 25° C., is centrifuged at a speed of 3000 r.p.m., and a certain amount of clear supernatant solution of the DMAEs saturated solution is collected. Then, such collected clear supernatant solution is subjected to HPLC determination to determine a weight W1 (g) of the DMAEs dissolved in the DMAEs saturated solution, and solubility of the DMAEs with respect to the saturated aliphatic monohydric alcohol is figured out by using the following equation (1).
# Solubility of DMAEs (g)=(W1/W0)×100 Equation (1)
# [4] = Solvency of the active substance in monomers (visual inspection); design: key: Excellent: The active substance was not found to have been precipitated in the solution of active substance both immediately after the preparation and after the preservation for 7 days.; Good: The active substance was found to have been precipitated in the solution of active substance immediately after the preparation, but the active substance was not found to have been precipitated in the solution of active substance after the preservation for 7 days.; Poor: The active substance was found to have been precipitated in the solution of active substance both immediately after the preparation and after the preservation for 7 days; conditions: 25° C., 7 days
smiles,measurement,setting,value
"COc1ccc(OC)c(C(O)CN)c1 (stereo not shown) [DMAE, 2-amino-1-(2′,5′-dimethoxyphenyl)ethanol]",Solvency of DMAE,[1]; 50 parts DMAE in 950 parts Butylene Glycol,Poor
same,Solvency of DMAE,[1]; 50 parts DMAE in 950 parts Diethyl Sebacate,Excellent
same,Solvency of DMAE,[1]; 50 parts DMAE in 950 parts Hexyldecanol,Excellent
same,Solvency of DMAE,[1]; 50 parts DMAE in 950 parts Isostearic Acid,Poor
same,Solvency of DMAE,[1]; 50 parts DMAE in 950 parts Isostearyl Alcohol,Excellent
same,Solvency of DMAE,[1]; 50 parts DMAE in 950 parts Lauryl Alcohol,Excellent
same,Solvency of DMAE,[1]; 50 parts DMAE in 950 parts Liquid Paraffin,Excellent
same,Solvency of DMAE,[1]; 50 parts DMAE in 950 parts Medium-chain Triglyceride,Excellent
same,Solvency of DMAE,[1]; 50 parts DMAE in 950 parts Monoethanolamine,Poor
same,Solvency of DMAE,[1]; 50 parts DMAE in 950 parts Octanediol,Poor
same,Solvency of DMAE,[1]; 50 parts DMAE in 950 parts Octyldodecanol,Excellent
same,Solvency of DMAE,[1]; 50 parts DMAE in 950 parts Oleic Acid,Excellent
same,Solvency of DMAE,[1]; 50 parts DMAE in 950 parts Oleyl Alcohol,Excellent
same,Solvency of DMAE,[1]; 50 parts DMAE in 950 parts Polyoxyethylene (2) Lauryl Ether,Excellent
same,Solvency of DMAE,[1]; 50 parts DMAE in 950 parts Propylene Glycol,Poor
same,Solvency of DMAE,[1]; 50 parts DMAE in 950 parts Squalane,Excellent
same,Solvency of DMAE,[1]; 50 parts DMAE in 950 parts Triacetin,Poor
same,Residual Rate (% by weight) Immediately after Preparation,[2]; in 1-Vinyl-2-Pyrrolidone,100 % by weight
same,Residual Rate (% by weight) after 7 Days,[2]; in 1-Vinyl-2-Pyrrolidone,100 % by weight
same,Residual Rate (% by weight) Immediately after Preparation,[2]; in 2-Ethylhexyl Acrylate,39 % by weight
same,Residual Rate (% by weight) after 7 Days,[2]; in 2-Ethylhexyl Acrylate,11 % by weight
same,Residual Rate (% by weight) Immediately after Preparation,[2]; in 2-Ethylhexyl Methacrylate,99 % by weight
same,Residual Rate (% by weight) after 7 Days,[2]; in 2-Ethylhexyl Methacrylate,99 % by weight
same,Residual Rate (% by weight) Immediately after Preparation,[2]; in Acrylic Acid,99 % by weight
same,Residual Rate (% by weight) after 7 Days,[2]; in Acrylic Acid,97 % by weight
same,Residual Rate (% by weight) Immediately after Preparation,[2]; in Butyl Acrylate,27 % by weight
same,Residual Rate (% by weight) Immediately after Preparation,[2]; in Butyl Methacrylate,98 % by weight
same,Residual Rate (% by weight) after 7 Days,[2]; in Butyl Methacrylate,98 % by weight
same,Residual Rate (% by weight) Immediately after Preparation,[2]; in Dodecyl Methacrylate,100 % by weight
same,Residual Rate (% by weight) after 7 Days,[2]; in Dodecyl Methacrylate,99 % by weight
same,Solubility of DMAE,[3]; g DMAE per 100 g Diethyl Sebacate at 25° C.,0.87 g
same,Solubility of DMAE,[3]; g DMAE per 100 g Hexyldecanol at 25° C.,1.4 g
same,Solubility of DMAE,[3]; g DMAE per 100 g Isostearyl Alcohol at 25° C.,1.8 g
same,Solubility of DMAE,[3]; g DMAE per 100 g Lauryl Alcohol at 25° C.,2.6 g
same,Solubility of DMAE,[3]; g DMAE per 100 g Liquid Paraffin at 25° C.,0.02 g
same,Solubility of DMAE,[3]; g DMAE per 100 g Medium-chain Triglyceride at 25° C.,0.31 g
same,Solubility of DMAE,[3]; g DMAE per 100 g Octyldodecanol at 25° C.,0.84 g
same,Solubility of DMAE,[3]; g DMAE per 100 g Oleic Acid at 25° C.,3.7 g
same,Solubility of DMAE,[3]; g DMAE per 100 g Oleyl Alcohol at 25° C.,2.5 g
same,Solubility of DMAE,[3]; g DMAE per 100 g Polyoxyethylene (2) Lauryl Ether at 25° C.,3.7 g
same,Solubility of DMAE,[3]; g DMAE per 100 g Squalane at 25° C.,0.01 g
same,Solvency of the active substance,[4]; 3 parts active substance in 100 parts 1-Vinyl-2-Pyrrolidone,Poor
same,Solvency of the active substance,[4]; 3 parts active substance in 100 parts 2-Ethylhexyl Acrylate,Poor
same,Solvency of the active substance,[4]; 3 parts active substance in 100 parts 2-Ethylhexyl Methacrylate,Poor
same,Solvency of the active substance,[4]; 3 parts active substance in 100 parts Acrylic Acid,Excellent
same,Solvency of the active substance,[4]; 3 parts active substance in 100 parts Butyl Acrylate,Good
same,Solvency of the active substance,[4]; 3 parts active substance in 100 parts Butyl Methacrylate,Poor
same,Solvency of the active substance,[4]; 3 parts active substance in 100 parts Dodecyl Methacrylate,Poor
same,Solvency of the active substance,[4]; 3 parts active substance in 100 parts Ethyl Acrylate,Excellent
